According to patent US12233099B2, “Composition for promoting myogenesis, containing processed ginseng extract” (GREEN CROSS WELLBEING CORPORATION, priority 2018, dated 2025):

Columns and labels:
Assay type in all cases: cell-based, mouse
[1] = tested on: myotubes differentiated from C2C12; test: Myostatin-induced myoatrophy cell model (myotube breadth)
Method: After myotubes were differentiated by the same method as in the induction of myotube differentiation of Test Example 1, the cells were added in DMEM not containing FBS, and cultured for 3 hours. After culturing, the cells were treated with the myogenesis inhibitor myostatin (MSTN) at different concentrations for 24 hours, and the change in breadth of myotubes was measured in order to investigate whether myoatrophy was induced. The change in breadth of myotubes was measured by the same method as in Test Example 4, and after the immunofluorescent staining, images of myotubes were observed using the fluorescent substance attached to MHC through a microscope, and the Image J program was used to determine the breadth of myotubes.
To investigate the myoatrophy inhibitory effect of the processed ginseng extracts of the present invention, myoatrophy was induced by the same method as the construction method of myoatrophy animal cell models in Test Example 5-1, and then the change in myotube breadth was observed. The myotubes were treated with 0.4 μg/0 myostatin (MSTN) and 30 μg/0 the processed ginseng extract of Example 2 alone or in combination, and the myotubes not treated with myostatin and the processed ginseng extract of Example 2 were used as a control group.

[2] = tested on: phosphorylated Smad2 (pSmad2); test: Smad2 phosphorylation in myostatin-treated myotubes (Western blotting); conditions: myotubes treated with myostatin; extract 0, 10, 30, and 100 μg/ml
Method: The myotubes differentiated by the same method as in Test Example 5-2 were treated with myostatin and the processed ginseng extract of Example 2 to secure cells, and the cells were subjected to Western blotting. The treatment concentrations of the processed ginseng extract of Example 2 was 0, 10, 30, and 100 μg/ml. A lysis buffer was added to the secured cells to lyse cells, and then centrifugation was used to secure proteins of the supernatant. The secured proteins of the supernatant were separated through sodium dodecyl sulfate polyacrylamide gel electrophoresis (SDS-PAGE) and transferred to a polyvinylidene fluoride (PVDF) membrane. The membrane was blocked by a blocking solution, treated with a primary antibody in order to determine the amounts of Smad2 and phosphorylated Smad2 (pSmad2), and then treated with a secondary antibody to the primary antibody. Then, enhanced chemiluminescence (ECL, Amersham) was used to examine protein expression.

[3] = tested on: MAFbx; test: MAFbx expression in myostatin-treated myotubes (Western blotting); conditions: extract 30 μg/ml
Method: (§1) The myotubes differentiated by the same method as in Test Example 5-2 were treated with myostatin and the processed ginseng extract of Example 2 to secure cells. The treatment concentrations of the processed ginseng extract of Example 2 was 30 μg/ml. The secured cells were subjected to Western blotting using antibodies corresponding to MyoD and MAFbx by the same method as in Test Example 6-1, and the results are shown in FIG. 8.

[4] = tested on: MyoD; test: MyoD expression in myostatin-treated myotubes (Western blotting); conditions: extract 30 μg/ml
Method: as §1

Q: What does the source list for “myostatin: myogenesis inhibitor protein of the TGF-β group, used to induce myotube atrophy”?
A: myotube breadth compared with the control group, treatment alone ([1]; 30 μg/0 Example 2 extract or 0.4 μg/0 myostatin alone): reduced; myostatin concentration giving greatest reduction in breadth of myotubes ([1]; 24 hours): 0.4 μg/0; breadth of myotubes compared with myotubes not treated with myostatin ([1]; myostatin at different concentrations for 24 hours): reduced in breadth of myotubes with the increase of the treatment concentration; Smad2 phosphorylation (pSmad2) [2]: increased; MAFbx expression (compared with GAPDH) [3]: increase in MAFbx expression; MyoD expression (compared with GAPDH) [4]: reduction in MyoD expression
